From PubChem BioAssay (NCI)
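Step 1: Grow cells in 96-well plates. Step 2: Expose to compound for 48 hours at 5 concentrations. Step 3: Interpolate endpoints linearly; if unreached, use highest concentration. At the TGI there is no net growth.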

Columns and labels:
Experiment in all cases: NCI tumour cell line growth inhibition, 48 h
786-0 renal = tested on: 786-0 renal
A498 renal = tested on: A498 renal
ACHN renal = tested on: ACHN renal
BT-549 breast = tested on: BT-549 breast
CAKI-1 renal = tested on: CAKI-1 renal
COLO 205 colon = tested on: COLO 205 colon
DU-145 prostate = tested on: DU-145 prostate
EKVX NSCLC = tested on: EKVX NSCLC
HCC-2998 colon = tested on: HCC-2998 colon
HCT-116 colon = tested on: HCT-116 colon
HCT-15 colon = tested on: HCT-15 colon
HL-60(TB) leukemia = tested on: HL-60(TB) leukemia
HOP-62 NSCLC = tested on: HOP-62 NSCLC
HS 578T breast = tested on: HS 578T breast
HT29 colon = tested on: HT29 colon
IGROV1 ovarian = tested on: IGROV1 ovarian
K-562 leukemia = tested on: K-562 leukemia
KM12 colon = tested on: KM12 colon
LOX IMVI melanoma = tested on: LOX IMVI melanoma
MALME-3M melanoma = tested on: MALME-3M melanoma
MCF7 breast = tested on: MCF7 breast
MDA-MB-231 breast = tested on: MDA-MB-231 breast
MDA-MB-435 = tested on: MDA-MB-435
MOLT-4 leukemia = tested on: MOLT-4 leukemia
NCI-H226 lung = tested on: NCI-H226 lung
NCI-H23 lung = tested on: NCI-H23 lung
NCI-H460 lung = tested on: NCI-H460 lung
NCI-H522 lung = tested on: NCI-H522 lung
NCI/ADR-RES ovarian = tested on: NCI/ADR-RES ovarian
OVCAR-3 ovarian = tested on: OVCAR-3 ovarian
OVCAR-4 ovarian = tested on: OVCAR-4 ovarian
OVCAR-5 ovarian = tested on: OVCAR-5 ovarian
OVCAR-8 ovarian = tested on: OVCAR-8 ovarian
PC-3 prostate = tested on: PC-3 prostate
RPMI-8226 leukemia = tested on: RPMI-8226 leukemia
RXF 393 renal = tested on: RXF 393 renal
SF-268 CNS = tested on: SF-268 CNS
SF-295 CNS = tested on: SF-295 CNS
SK-MEL-2 melanoma = tested on: SK-MEL-2 melanoma
SK-MEL-28 melanoma = tested on: SK-MEL-28 melanoma
SK-MEL-5 melanoma = tested on: SK-MEL-5 melanoma
SN12C renal = tested on: SN12C renal
SNB-19 CNS = tested on: SNB-19 CNS
SNB-75 CNS = tested on: SNB-75 CNS
SW-620 colon = tested on: SW-620 colon
T-47D breast = tested on: T-47D breast
TK-10 renal = tested on: TK-10 renal
U251 CNS = tested on: U251 CNS
UACC-257 melanoma = tested on: UACC-257 melanoma
UACC-62 melanoma = tested on: UACC-62 melanoma
UO-31 renal = tested on: UO-31 renal

Measured: TGI

CC1=C(S(=O)c2ccc(C)cc2)CCC2(CCCCO2)O1 (stereo unspecified)
> 100 µM: all assays above
